Source: paper PMC9266822, “Thermal Shift Assay for Small GTPase Stability Screening: Evaluation and Suitability” (International Journal of Molecular Sciences, 2022)
“Also recorded” adds a separate entry of the source.

Columns and labels:
KRAS G12C = test system: T1, KRAS G12C; test: Protein-Probe thermal stability assay; assay type: binding, human; settings: for thermal stability effect: 10 µM compound, 1 mM MgCl2
T1 construct: GG-Hs.KRAS4b (2-188) G12C; His6-MBP (N, cleaved yes); made in house; host or cells: E. coli
Experimental: All Protein-Probe assays were performed using a sample volume of 8 µL and a two-step assay protocol. […] Assays were performed in a sample buffer containing 10 mM HEPES (pH 7.5), 0.001% Triton X-100 and 20 mM NaCl and the buffer was supplemented with 0–10 mM MgCl2, 0–1 mM CaCl2, or 0–1 mM EDTA, depending on the assay. In all thermal stability assays, samples were preincubated at RT for 10 min (nucleotides) or 30 min (inhibitors) prior to thermal measurements. […] At each temperature, samples were incubated for 3 min before the Protein-Probe solution was added, and the TRL-signals at 620 nm were monitored at RT. […]
(§1) All inhibitor assays were performed with a buffer containing 1 mM MgCl2. […]

KRAS WT [1] = target: T2, KRAS WT (Homo sapiens, UniProt P01116); test: QRET nucleotide exchange assay, SOScat induced; assay type: biochemical; settings: for KRAS binding level / KRAS binding: Fig. 3A legend, SOScat 10 nM; for KRAS binding level / EC50 / KRAS binding: 15 nM KRAS; for EC50: nucleotide titration, SOScat 5 nM (Table S2), 10 nM (Fig. 3 legend)
T2 construct: GG-Hs.KRAS4b (2-188), GG-Hs.KRAS4b (2-188) G12C; His6-MBP (N, cleaved yes); made in house; host or cells: E. coli
T2 sequence (P01116 2-188 isoform P01116-2): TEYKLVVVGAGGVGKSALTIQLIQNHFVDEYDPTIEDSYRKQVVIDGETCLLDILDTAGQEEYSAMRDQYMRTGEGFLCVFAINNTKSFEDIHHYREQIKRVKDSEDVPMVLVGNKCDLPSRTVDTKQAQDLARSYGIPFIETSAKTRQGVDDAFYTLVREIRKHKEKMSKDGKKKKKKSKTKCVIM

KRAS WT [2] = test system: T3, KRAS WT; test: Protein-Probe thermal stability assay; assay type: binding, human; settings: for thermal stability effect: 10 µM compound; for thermal stability effect / KRAS stabilizing effect / concentration at which KRAS was stabilized: 1 mM MgCl2; for Thermal Stability (°C): Table S1, additive as headed: EDTA 0.5 mM, MgCl2 1 mM, GDP 10 mM, GTP 10 µM, GTPγS 10 µM, GMP-PNP 300 µM; for Thermal Stability (°C) / KRAS stabilizing effect: GMP-PCP 300 µM, GMP 1 mM
T3 construct: His6-MBP (N, cleaved yes); made in house; host or cells: E. coli
Experimental: (§2) All Protein-Probe assays were performed using a sample volume of 8 µL and a two-step assay protocol. Detection was performed at room temperature (RT) by adding 65 µL Protein-Probe solution: 4 µM HIDC (1,1,3,3,3′,3′-hexamethylindodicarbocyanine iodide) and 1–1.5 nM Eu^3+-labeled peptide probe (NH2-[…]). Assays were performed in a sample buffer containing 10 mM HEPES (pH 7.5), 0.001% Triton X-100 and 20 mM NaCl and the buffer was supplemented with 0–10 mM MgCl2, 0–1 mM CaCl2, or 0–1 mM EDTA, depending on the assay. In all thermal stability assays, samples were preincubated at RT for 10 min (nucleotides) or 30 min (inhibitors) prior to thermal measurements. Depending on the studied protein, thermal ramping was performed up to 95 °C, using 5 °C intervals. At each temperature, samples were incubated for 3 min before the Protein-Probe solution was added, and the TRL-signals at 620 nm were monitored at RT.
(§3) In addition, KRAS WT was monitored in a sample buffer supplemented with 0–10 mM MgCl2 or 0–1 mM CaCl2.
[…] KRAS WT (50 nM) was also monitored with 10 µM GDP in a buffer without MgCl2 or supplemented with 0–1 mM CaCl2 or 1 mM EDTA. HRAS (2 µM), NRAS (2 µM), RhoA (2 µM), and Gαi (50 nM) were monitored with 100 µM GDP, GTP, or ATP in buffers with or without 1 mM MgCl2 and 1 mM EDTA. In addition, melting curves for KRAS WT (50 nM) were measured with GTP analogs GTPγS, GMPPNP, and GMPPCP (0–300 µM), and GMP (0–1000 µM) in the presence of 1 mM MgCl2.
as §1

KRAS G12D = test: Protein-Probe thermal stability assay; assay type: binding, human; settings: KRAS G12D 50 nM; 10 µM compound
Experimental: as §2, §3
(§4) KRAS G13D (50 nM) was monitored in the presence of 0–900 nM GDP, and KRAS WT, G13D, G12D, and Q61R (50 nM) were monitored with 10 and/or 100 µM GDP, GTP, and ATP in buffer supplemented with 1 mM MgCl2. KRAS WT (50 nM) was also monitored with 10 µM GDP in a buffer without MgCl2 or supplemented with 0–1 mM CaCl2 or 1 mM EDTA. HRAS (2 µM), NRAS (2 µM), RhoA (2 µM), and Gαi (50 nM) were monitored with 100 µM GDP, GTP, or ATP in buffers with or without 1 mM MgCl2 and 1 mM EDTA. In addition, melting curves for KRAS WT (50 nM) were measured with GTP analogs GTPγS, GMPPNP, and GMPPCP (0–300 µM), and GMP (0–1000 µM) in the presence of 1 mM MgCl2.
All inhibitor assays were performed with a buffer containing 1 mM MgCl2.
(§5) Assays were performed using three DARPins alone or in combination with small molecular inhibitors. […] The thermal curves were monitored after an additional 30 min incubation at RT.

KRAS G13D = test system: T4, KRAS G13D; test: Protein-Probe thermal stability assay; assay type: binding, human; settings: for Thermal Stability (°C): Table S1, KRAS G13D 50 nM, EDTA 0.5 mM, MgCl2 1 mM, GDP 10 mM, GTP 10 µM as headed
T4 construct: GG-Hs.KRAS4b (2-188) G13D; His6-MBP (N, cleaved yes); made in house; host or cells: E. coli
Experimental: as §2, §3, §4, §5

KRAS Q61R = test system: T5, KRAS Q61R; test: Protein-Probe thermal stability assay; assay type: binding, human; settings: for Thermal Stability (°C): Table S1, KRAS Q61R 50 nM, EDTA 0.5 mM, MgCl2 1 mM, GDP 10 mM, GTP 10 µM as headed
T5 construct: GG-Hs.KRAS4b (2-188) Q61R; His6-MBP (N, cleaved yes); made in house; host or cells: E. coli
Experimental: as §2, §3, §4, §5

RhoA = test system: T6, RhoA; test: Protein-Probe thermal stability assay; assay type: binding; settings: Table S1; RhoA 1 µM; additive concentrations not given (100 µM GDP/GTP)
T6 construct: and RhoA (1-182) were gen-; His6-MBP (N, cleaved yes); made in house; host or cells: E. coli
Experimental: as §2, §3
as §4, with “HRAS (2 µM), NRAS (2 µM), RhoA (2 µM), and Gαi (50 nM) were monitored with 100 µM GDP, GTP, or ATP in buffers with or without 1 mM MgCl2 and 1 mM EDTA.” left out

Gαi = test: Protein-Probe thermal stability assay; assay type: binding; settings: 100 µM GDP or GTP
Experimental: as §2, §3, §4

**Q.** How did the ΔTm (KRAS G12C; 50 nM KRAS G12C, inhibitor 0–900 nM, thermal stability increase) turn out when C=C(F)C(=O)N1CCN(c2nc(OC[C@@H]3CCCN3C)nc3c2CCN(c2cccc4cccc(Cl)c24)C3)C[C@@H]1CC#N [MRTX849] was run?
**A.** 15.6 °C

**Q.** What does the source list for Cn1cnc(Cn2ccc3ccc(CNCc4[nH]c5ccccc5c4[C@@H]4NC(=O)c5ccc(O)cc54)cc32)c1 [BI-2853]?
**A.** effect on KRAS nucleotide exchange activity (KRAS WT [1]; 100 nM KRAS WT, 10 nM SOScat): no effect; thermal stability effect (KRAS WT [2]; KRAS WT 50 nM): Neither compound altered; thermal stability effect (KRAS G12C; KRAS G12C 50 nM): no response; thermal stability effect (KRAS G12D): Neither compound altered

**Q.** CNCc1ccccc1-c1csc([C@@H](C)Nc2nc(C)nc3cc(OC)c(OC)cc23)c1 [BAY-293] was tested. Which “thermal stability effect” value (KRAS G12C; KRAS G12C 50 nM) did it give?
**A.** no response

**Q.** Which Tm (KRAS WT [2]; KRAS WT 50 nM, 1 mM EDTA, unit not given, in °C (unit assumed)) does the source give for O=C(O)CN(CCN(CC(=O)O)CC(=O)O)CC(=O)O [EDTA] here?
**A.** 50.8 ± 0.6

**Q.** What about the Tm (KRAS WT [2]; KRAS WT 100 nM, additive 1 mM) of the same compound?
**A.** 48.9 ± 0.4 °C

**Q.** And the “Thermal Stability (°C)” value (KRAS WT [2]; KRAS WT 50 nM)?
**A.** 49.0 °C

**Q.** What about the “Thermal Stability (°C)” value (KRAS G12C; Table S1, KRAS G12C 50 nM, EDTA 0.5 mM, MgCl2 1 mM) of the same compound?
**A.** 48.2 ± 0.4 °C

**Q.** What about the Tm (KRAS G13D; KRAS G13D 100 nM, additive 1 mM) of the same compound?
**A.** 43.6 ± 0.8 °C

**Q.** What about the “Thermal Stability (°C)” value (KRAS G13D) of the same compound?
**A.** 47.7 ± 0.5 °C

**Q.** And the Tm (KRAS Q61R; KRAS Q61R 100 nM, additive 1 mM)?
**A.** 50.6 ± 1.0 °C

**Q.** What about the “Thermal Stability (°C)” value (KRAS Q61R) of the same compound?
**A.** 51.8 ± 0.9 °C

**Q.** And the “Thermal Stability (°C)” value (RhoA)?
**A.** 44.7 °C

**Q.** Which results are given for Cn1cnc(Cn2ccc3ccc(CNCc4[nH]c5ccccc5c4[C@H]4NC(=O)c5ccc(O)cc54)cc32)c1 [BI-2852]?
**A.** IC50 (KRAS WT [1]; 100 nM KRAS WT, 10 nM SOScat, inhibitor preincubated with KRAS): 2800 ± 700 nM; thermal stability effect (KRAS WT [2]; KRAS WT 50 nM): Neither compound altered; also recorded: negligible; thermal stability effect (KRAS G12C; KRAS G12C 50 nM): negligible; thermal stability effect (KRAS G12D): Neither compound altered; also recorded: negligible

**Q.** What does the source list for Nc1nc2c(ncn2C2OC(COP(=O)(O)OP(=O)(O)CP(=O)(O)O)C(O)C2O)c(=O)[nH]1 (stereo not drawn) [GMP-PCP, guanosine-5’-[(β,γ)-methyleno]triphosphate]?
**A.** KRAS binding level (KRAS WT [1]): micromolar; EC50 (KRAS WT [1]): 542 ± 38 nM; KRAS stabilizing effect (KRAS WT [2]; KRAS WT 50 nM): minor effects; Thermal Stability (°C) (KRAS WT [2]; KRAS WT 50 nM): 64.4 °C

**Q.** Which results are given for Nc1nc2c(ncn2[C@@H]2O[C@H](COP(=O)(O)OP(=O)(O)NP(=O)(O)O)[C@@H](O)[C@H]2O)c(=O)[nH]1 [GMP-PNP, guanosine-5’-[(β,γ)-imido]triphosphate]?
**A.** KRAS binding level (KRAS WT [1]): micromolar; EC50 (KRAS WT [1]): 71.2 ± 9.3 nM; Tm of nucleotide-preloaded KRAS (KRAS WT [2]; KRAS 50 nM preloaded with the nucleotide, unit not given, in °C (unit assumed)): 53.2 ± 0.3; concentration at which KRAS was stabilized (KRAS WT [2]; KRAS WT 50 nM): 300000 nM; Thermal Stability (°C) (KRAS WT [2]; KRAS WT 50 nM): 67.1 ± 0.1 °C

**Q.** Which results are given for Nc1nc2c(ncn2[C@@H]2O[C@H](COP(=O)(O)OP(=O)(O)OP(=O)(O)O)[C@@H](O)[C@H]2O)c(=O)[nH]1 [GTP, guanosine-5’-triphosphate]?
**A.** KRAS binding (KRAS WT [1]): < 15 nM; EC50 (KRAS WT [1]): 7.9 ± 0.6 nM; concentration at which KRAS was stabilized (KRAS WT [2]; KRAS WT 50 nM): 10000 nM; Thermal Stability (°C) (KRAS WT [2]; KRAS WT 50 nM): 68.2 °C; Thermal Stability (°C) (KRAS G13D): 60.8 °C; Thermal Stability (°C) (KRAS Q61R): 71.7 °C; Thermal Stability (°C) (RhoA): 73.0 °C; max ΔTm (Gαi; with Mg2+): ≤ 1.0 °C; max ΔTm (Gαi; without Mg2+): ≤ 3.3 °C

**Q.** Which “stability increase compared to 1 mM EDTA” value (KRAS WT [2]; KRAS WT 50 nM, additive 0.1 mM) does the source give for [Ca+2].[Cl-].[Cl-] [CaCl2] here?
**A.** 1.2 °C

**Q.** What about the “stability increase compared to 1 mM EDTA” value (KRAS WT [2]; KRAS WT 50 nM, additive 1 mM) of the same compound?
**A.** 3.7 °C

**Q.** Nc1nc2c(ncn2[C@@H]2O[C@H](COP(=O)(O)O)[C@@H](O)[C@H]2O)c(=O)[nH]1 [GMP, guanosine-5’-monophosphate] was tested. Which EC50 (KRAS WT [1]) did it give?
**A.** 101000 ± 8000 nM

**Q.** And the “KRAS stabilizing effect” value (KRAS WT [2]; KRAS WT 50 nM)?
**A.** no KRAS stabilizing effect; also recorded: no KRAS stabilization

**Q.** What about the “Thermal Stability (°C)” value (KRAS WT [2]; KRAS WT 50 nM) of the same compound?
**A.** 61.3 °C

**Q.** For Nc1nc2c(ncn2[C@@H]2O[C@H](COP(=O)(O)OP(=O)(O)OP(O)(O)=S)[C@@H](O)[C@H]2O)c(=O)[nH]1 [GTPγS, guanosine-5’-(γ-thio)-triphosphate], which KRAS binding (KRAS WT [1]) is on record?
**A.** < 15 nM

**Q.** And the EC50 (KRAS WT [1])?
**A.** 11.7 ± 0.8 nM

**Q.** What about the “concentration at which KRAS was stabilized” value (KRAS WT [2]; KRAS WT 50 nM) of the same compound?
**A.** 10000 nM

**Q.** What about the “Thermal Stability (°C)” value (KRAS WT [2]; KRAS WT 50 nM) of the same compound?
**A.** 67.8 ± 0.6 °C
